For assay [1], the target named is T1, High affinity choline transporter 1 (Homo sapiens, UniProt Q9GZV3).
T1 sequence (Q9GZV3 whole entry): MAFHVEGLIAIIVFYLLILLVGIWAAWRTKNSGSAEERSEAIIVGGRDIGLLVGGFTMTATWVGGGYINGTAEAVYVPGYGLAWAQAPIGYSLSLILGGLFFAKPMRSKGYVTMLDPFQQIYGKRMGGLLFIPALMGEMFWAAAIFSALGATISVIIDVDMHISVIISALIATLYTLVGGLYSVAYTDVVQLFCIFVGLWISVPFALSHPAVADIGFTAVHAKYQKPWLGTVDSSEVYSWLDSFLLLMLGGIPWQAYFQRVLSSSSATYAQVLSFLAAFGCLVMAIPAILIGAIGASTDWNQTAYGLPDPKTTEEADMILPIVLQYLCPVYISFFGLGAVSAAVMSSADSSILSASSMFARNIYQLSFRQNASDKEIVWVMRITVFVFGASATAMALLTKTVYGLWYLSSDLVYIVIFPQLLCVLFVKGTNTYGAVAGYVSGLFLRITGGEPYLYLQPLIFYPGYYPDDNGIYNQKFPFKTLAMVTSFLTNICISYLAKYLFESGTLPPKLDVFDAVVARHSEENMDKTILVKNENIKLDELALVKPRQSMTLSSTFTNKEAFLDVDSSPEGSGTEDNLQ
Briefly: human choline transporter blockers, potency – cell-based, 10-point CRC, membrane potential dye, dose response (AID 588401).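 Further: membrane potential dye fluorescence of choline-evoked depolarization via CHT.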 The class given is functional.

Assay [2] is described as follows: Luminescence Cell-Based Dose Confirmation HTS to Identify Activators of 5'UTR Stem-Loop Driven Alpha-Synuclein mRNA Translation in H4 Neuroglioblastoma Cells. [Related pubchem assays: 1829 (Project Summary), 1814 (Primary HTS)]. The class given is functional.
In assay [3] the target is T1, High affinity choline transporter 1. Briefly: human choline transporter blockers, potency – cell-based, 5-point CRC, membrane potential dye, dose response (AID 504840). The class given is functional.
The nature of assay [4]: Luminescence Cell-Based Dose Response HTS to Identify Activators of Luciferase Translation or Activity in H4 […] Cells. [Related pubchem assays: 1829 (Project Summary), 1814 (Primary HTS)]. The class given is functional.
A further assay deals with H4. Briefly: Luminescence Cell-Based Dose Response HTS to Identify Activators of 5'UTR Stem-Loop Driven Prion Protein mRNA Translation in H4 Neuroglioblastoma Cells. [Related pubchem assays: 1829 (Project Summary), 1814 (Primary HTS)]. Format: functional. The settings on record: Homo sapiens.
The target of assay [5] is T2, DNA dC->dU-editing enzyme APOBEC-3G (Homo sapiens, UniProt Q9HC16). Description: Dose Response confirmation of small molecule APOBEC3G DNA Deaminase Inhibitors via a fluorescence-based single-stranded DNA deaminase assay. [Related pubchem assays (depositor defined):AID493012, AID493028]. Format: functional.
T2 sequence (Q9HC16 whole entry): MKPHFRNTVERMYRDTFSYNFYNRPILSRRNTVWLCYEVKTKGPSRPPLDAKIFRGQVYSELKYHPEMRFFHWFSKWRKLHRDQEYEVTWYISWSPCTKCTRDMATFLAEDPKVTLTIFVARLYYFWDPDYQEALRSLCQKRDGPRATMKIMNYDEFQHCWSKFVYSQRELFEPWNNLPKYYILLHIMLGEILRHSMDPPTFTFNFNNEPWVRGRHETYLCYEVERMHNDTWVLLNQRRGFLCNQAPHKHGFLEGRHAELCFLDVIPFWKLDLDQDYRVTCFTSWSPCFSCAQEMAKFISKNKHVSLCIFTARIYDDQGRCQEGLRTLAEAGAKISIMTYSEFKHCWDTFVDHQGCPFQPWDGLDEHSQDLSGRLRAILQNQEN
In assay [6] the target is T3, Heat shock factor protein 1 (Mus musculus, UniProt P38532).
T3 sequence (P38532 whole entry): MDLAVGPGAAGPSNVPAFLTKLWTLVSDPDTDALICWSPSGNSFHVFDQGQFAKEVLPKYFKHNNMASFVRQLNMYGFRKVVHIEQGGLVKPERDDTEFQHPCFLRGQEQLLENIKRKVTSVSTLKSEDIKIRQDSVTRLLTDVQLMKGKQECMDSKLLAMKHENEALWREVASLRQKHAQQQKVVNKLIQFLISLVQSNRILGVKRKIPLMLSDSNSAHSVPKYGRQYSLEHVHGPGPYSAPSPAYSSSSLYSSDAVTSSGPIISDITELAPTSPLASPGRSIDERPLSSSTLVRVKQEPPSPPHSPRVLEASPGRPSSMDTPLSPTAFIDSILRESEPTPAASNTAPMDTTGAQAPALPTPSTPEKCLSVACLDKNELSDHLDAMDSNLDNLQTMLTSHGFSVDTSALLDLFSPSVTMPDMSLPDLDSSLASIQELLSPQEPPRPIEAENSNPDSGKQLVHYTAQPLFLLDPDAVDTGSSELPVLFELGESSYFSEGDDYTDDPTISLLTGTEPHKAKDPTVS
Briefly: decrease of HSF1-responsive luciferase luminescence – cell-based, NIH3T3, dose retest, confirmation (AID 2382).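 Further: NIH3T3 fibroblasts with HSF1-driven luciferase reporter stressed by proteasome inhibitor MG132; luminescence from HSF1-driven luciferase expression after 8 hours of MG132 stress.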 Format: functional.

Assay [7] has as its target T4, DNA dC->dU-editing enzyme APOBEC-3A (Homo sapiens, UniProt P31941). Briefly: SAR analysis of small molecule inhibitors of APOBEC3A DNA Deaminase via a fluorescence-based single-stranded DNA deaminase assay. Format: functional. Particulars: read-out: IC50_Mean.
Assay [8] addresses T4, DNA dC->dU-editing enzyme APOBEC-3A. Briefly: A3A deaminase inhibition for selectivity – biochemical, dose response (AID 504722). Format: functional.
The target of assay [9] is T2, DNA dC->dU-editing enzyme APOBEC-3G. Briefly: SAR analysis of small molecule inhibitors of APOBEC3G DNA Deaminase via a fluorescence-based single-stranded DNA deaminase assay - Set 2. Format: functional. Particulars: read-out: IC50_Mean.
The target of assay [10] is T4, DNA dC->dU-editing enzyme APOBEC-3A. Briefly: SAR analysis of small molecule inhibitors of APOBEC3A DNA Deaminase via a fluorescence-based single-stranded DNA deaminase assay - Set 2. The class given is functional. Particulars: read-out: IC50_Mean.
Assay [11] concerns the target T2, DNA dC->dU-editing enzyme APOBEC-3G. Description: inhibition of APOBEC3G ssDNA deamination – biochemical, fluorescence, single-stranded DNA substrate, SAR follow-up (AID 602136). Format: functional. Particulars: read-out: IC50_Mean.
The next assay concerns the target Melanocortin receptor 4 (Homo sapiens, UniProt P32245). Format: functional, cell-based.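 Further: Cell-based assay with luminescence read-out, confirmatory dose-response testing for agonist activity of biased ligands at MC4R; human U2OS cells with tagged receptor and beta-arrestin; potency of agonists that increase receptor coupling to beta-arrestin.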
Assay [12] deals with T4, DNA dC->dU-editing enzyme APOBEC-3A. Briefly: Dose Response confirmation of small molecule APOBEC3A DNA Deaminase Inhibitors via a fluorescence-based single-stranded DNA deaminase assay. [Related pubchem assays (depositor defined):AID493011, AID493024]. Format: functional.
Assay [13] has as its target T2, DNA dC->dU-editing enzyme APOBEC-3G. Format: functional.
The target in assay [14] is T5, Carboxy-terminal domain RNA polymerase II polypeptide A small phosphatase 1 (Homo sapiens, UniProt Q9GZU7).
T5 sequence (Q9GZU7 whole entry): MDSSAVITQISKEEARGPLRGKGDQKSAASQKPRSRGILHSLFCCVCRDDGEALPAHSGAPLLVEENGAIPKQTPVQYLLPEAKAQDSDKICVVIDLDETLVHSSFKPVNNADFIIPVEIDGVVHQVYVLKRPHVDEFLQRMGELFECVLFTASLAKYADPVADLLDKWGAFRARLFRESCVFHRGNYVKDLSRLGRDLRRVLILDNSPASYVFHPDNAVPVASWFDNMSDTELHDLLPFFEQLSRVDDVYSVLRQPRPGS
Briefly: CTDSP1 inhibitors, concentration-response, biochemical, absorbance readout, ultra-high-throughput screen actives (AID 540297). The class given is functional.

Assay [15] deals with DNA (cytosine-5)-methyltransferase 1 (Homo sapiens, UniProt P26358). Description: inhibition of DNA methylation by DNMT1 – biochemical, fluorescent molecular beacon, confirmation (AID 602386). The class given is functional.
Sequence of DNA (cytosine-5)-methyltransferase 1 (P26358 whole entry): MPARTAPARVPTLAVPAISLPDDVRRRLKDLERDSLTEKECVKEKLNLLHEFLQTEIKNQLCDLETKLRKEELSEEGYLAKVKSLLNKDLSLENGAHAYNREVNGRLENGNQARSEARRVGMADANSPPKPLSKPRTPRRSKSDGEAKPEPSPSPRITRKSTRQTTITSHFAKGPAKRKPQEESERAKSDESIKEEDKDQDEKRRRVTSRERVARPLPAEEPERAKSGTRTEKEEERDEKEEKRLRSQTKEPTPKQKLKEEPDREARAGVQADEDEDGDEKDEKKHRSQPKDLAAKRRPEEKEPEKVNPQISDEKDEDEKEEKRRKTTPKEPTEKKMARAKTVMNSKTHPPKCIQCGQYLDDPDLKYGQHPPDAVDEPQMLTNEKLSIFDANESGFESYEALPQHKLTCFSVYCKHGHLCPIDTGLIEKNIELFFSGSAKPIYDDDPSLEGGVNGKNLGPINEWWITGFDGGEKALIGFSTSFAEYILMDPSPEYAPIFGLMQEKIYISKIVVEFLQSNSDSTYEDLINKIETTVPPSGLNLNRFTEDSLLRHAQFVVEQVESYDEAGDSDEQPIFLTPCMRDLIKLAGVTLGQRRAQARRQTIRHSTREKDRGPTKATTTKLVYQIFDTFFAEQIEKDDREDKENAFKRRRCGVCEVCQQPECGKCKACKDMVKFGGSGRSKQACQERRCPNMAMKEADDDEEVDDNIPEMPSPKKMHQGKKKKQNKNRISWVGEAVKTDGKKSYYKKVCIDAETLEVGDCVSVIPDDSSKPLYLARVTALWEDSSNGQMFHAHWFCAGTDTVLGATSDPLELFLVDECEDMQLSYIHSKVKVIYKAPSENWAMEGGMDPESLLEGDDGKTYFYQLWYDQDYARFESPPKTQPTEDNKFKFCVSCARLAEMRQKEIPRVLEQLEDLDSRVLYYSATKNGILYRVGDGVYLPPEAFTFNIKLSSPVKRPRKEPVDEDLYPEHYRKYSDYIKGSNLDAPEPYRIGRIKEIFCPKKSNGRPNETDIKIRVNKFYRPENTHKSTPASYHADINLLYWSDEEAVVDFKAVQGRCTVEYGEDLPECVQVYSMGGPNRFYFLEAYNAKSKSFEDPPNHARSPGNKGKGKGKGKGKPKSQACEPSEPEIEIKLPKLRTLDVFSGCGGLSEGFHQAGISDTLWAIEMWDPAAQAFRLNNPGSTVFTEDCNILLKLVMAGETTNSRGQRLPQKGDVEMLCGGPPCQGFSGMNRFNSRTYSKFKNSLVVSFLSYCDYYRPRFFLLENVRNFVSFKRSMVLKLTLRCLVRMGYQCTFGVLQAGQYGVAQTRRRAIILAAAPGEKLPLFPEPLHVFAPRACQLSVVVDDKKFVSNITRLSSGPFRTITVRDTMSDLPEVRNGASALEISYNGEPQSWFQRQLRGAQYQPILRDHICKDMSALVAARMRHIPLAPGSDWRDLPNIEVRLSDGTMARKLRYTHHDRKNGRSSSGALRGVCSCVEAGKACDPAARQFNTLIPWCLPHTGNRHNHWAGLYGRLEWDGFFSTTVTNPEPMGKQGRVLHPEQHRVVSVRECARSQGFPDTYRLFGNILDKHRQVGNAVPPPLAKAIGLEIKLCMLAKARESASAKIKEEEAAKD
The target of assay [16] is T6, Rac GTPase-activating protein 1 (Homo sapiens, UniProt Q9H0H5).
T6 sequence (Q9H0H5 whole entry): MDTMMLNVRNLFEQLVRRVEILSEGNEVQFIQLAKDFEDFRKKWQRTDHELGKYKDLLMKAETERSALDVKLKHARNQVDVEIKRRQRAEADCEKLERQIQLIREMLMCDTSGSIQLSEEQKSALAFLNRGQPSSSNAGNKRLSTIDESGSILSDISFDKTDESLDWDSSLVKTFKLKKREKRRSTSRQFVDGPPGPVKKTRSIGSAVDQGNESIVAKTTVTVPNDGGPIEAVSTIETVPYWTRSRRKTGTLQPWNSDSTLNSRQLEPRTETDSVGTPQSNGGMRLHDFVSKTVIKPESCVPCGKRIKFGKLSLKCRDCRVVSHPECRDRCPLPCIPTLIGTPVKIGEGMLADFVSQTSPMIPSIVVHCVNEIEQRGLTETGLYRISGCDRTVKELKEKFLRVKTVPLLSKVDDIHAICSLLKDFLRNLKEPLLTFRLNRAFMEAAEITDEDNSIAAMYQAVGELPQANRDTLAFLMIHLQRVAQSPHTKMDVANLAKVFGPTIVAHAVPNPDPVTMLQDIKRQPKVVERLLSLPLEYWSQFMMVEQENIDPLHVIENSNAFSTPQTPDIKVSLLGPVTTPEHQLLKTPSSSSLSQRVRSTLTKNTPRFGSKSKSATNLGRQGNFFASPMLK
Description: blockers of MgcRacGAP-driven Rac1 GTP hydrolysis – biochemical, ADP Hunter fluorescence, primary and confirmatory, confirmation (AID 624330). The class given is functional.

Assay [17] concerns the target T7, Apoptotic protease-activating factor 1 (Homo sapiens, UniProt O14727).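 Further: caspase-3 cleavage of fluorogenic Rh110 DEVD substrate downstream of apoptosome activation.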
T7 sequence (O14727 whole entry): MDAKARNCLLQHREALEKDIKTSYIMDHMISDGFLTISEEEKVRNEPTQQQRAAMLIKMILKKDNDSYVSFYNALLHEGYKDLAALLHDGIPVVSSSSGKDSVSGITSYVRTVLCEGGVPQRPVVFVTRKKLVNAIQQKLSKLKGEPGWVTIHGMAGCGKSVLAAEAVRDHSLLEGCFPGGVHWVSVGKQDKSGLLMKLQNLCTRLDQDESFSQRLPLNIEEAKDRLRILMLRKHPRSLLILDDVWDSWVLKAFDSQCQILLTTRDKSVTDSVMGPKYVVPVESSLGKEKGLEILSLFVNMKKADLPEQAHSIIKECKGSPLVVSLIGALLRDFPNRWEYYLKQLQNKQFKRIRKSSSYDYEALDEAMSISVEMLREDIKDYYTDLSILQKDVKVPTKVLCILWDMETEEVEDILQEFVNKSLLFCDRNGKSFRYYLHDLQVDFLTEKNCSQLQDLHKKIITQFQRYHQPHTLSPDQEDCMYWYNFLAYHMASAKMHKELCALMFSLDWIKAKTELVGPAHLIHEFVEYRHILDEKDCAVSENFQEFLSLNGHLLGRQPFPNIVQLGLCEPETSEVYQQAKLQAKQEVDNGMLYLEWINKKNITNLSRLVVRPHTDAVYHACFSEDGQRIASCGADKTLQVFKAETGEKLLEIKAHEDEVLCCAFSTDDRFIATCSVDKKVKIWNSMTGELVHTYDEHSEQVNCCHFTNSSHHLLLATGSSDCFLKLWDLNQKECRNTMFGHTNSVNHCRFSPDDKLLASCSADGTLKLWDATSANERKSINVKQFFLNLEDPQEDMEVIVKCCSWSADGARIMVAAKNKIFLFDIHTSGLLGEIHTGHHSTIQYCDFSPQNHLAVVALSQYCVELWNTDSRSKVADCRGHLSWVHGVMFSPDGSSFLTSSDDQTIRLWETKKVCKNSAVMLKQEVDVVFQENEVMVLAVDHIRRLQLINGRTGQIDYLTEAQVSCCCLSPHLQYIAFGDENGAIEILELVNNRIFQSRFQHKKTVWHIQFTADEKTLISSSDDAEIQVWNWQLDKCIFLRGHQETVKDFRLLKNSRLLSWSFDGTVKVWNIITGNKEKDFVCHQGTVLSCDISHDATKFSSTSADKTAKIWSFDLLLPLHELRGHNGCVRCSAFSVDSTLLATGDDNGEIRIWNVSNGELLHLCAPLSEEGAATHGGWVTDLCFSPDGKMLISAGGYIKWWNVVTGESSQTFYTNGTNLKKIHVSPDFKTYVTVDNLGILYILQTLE
Briefly: SAR analysis of small molecule Activators of Apaf-1 in a Fluorescent assay. Format: functional. The settings on record: read-out: EC50_Mean.

Values joined by “and” are separate entries in the source; they are usually repeats but may differ in a detail not shown here. Identical values can stand only once. Active and inactive are the calls of the source. Where only a bound is given, the exact number is not on record here.

T4 sequence (P31941 whole entry): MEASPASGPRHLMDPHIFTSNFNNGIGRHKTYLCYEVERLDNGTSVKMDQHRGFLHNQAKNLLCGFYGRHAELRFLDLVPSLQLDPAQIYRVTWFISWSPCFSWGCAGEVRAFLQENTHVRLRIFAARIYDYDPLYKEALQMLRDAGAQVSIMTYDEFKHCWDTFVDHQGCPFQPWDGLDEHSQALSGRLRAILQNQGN
Sequence of Melanocortin receptor 4 (P32245 whole entry): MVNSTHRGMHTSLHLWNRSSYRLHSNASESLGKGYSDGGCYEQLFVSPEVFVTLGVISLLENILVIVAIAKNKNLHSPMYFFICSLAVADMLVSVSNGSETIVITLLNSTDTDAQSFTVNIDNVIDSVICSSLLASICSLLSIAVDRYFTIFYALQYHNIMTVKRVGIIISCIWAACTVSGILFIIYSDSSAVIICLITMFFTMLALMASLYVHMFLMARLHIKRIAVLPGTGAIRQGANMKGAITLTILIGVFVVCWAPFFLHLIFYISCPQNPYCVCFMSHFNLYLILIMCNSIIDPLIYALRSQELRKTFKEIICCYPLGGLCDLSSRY

Take `O=C1NN(c2ccccc2)C(=O)/C1=C/c1coc2ccccc2c1=O`: the figures for the IC50 in [1] and in [3] were 1.27 µM (active) and 5.3 µM (active), respectively. For the same compound, the figures for the EC50 (in assay [2]; in assay [4]; in the assay on H4) were 14.5 µM (active), 44.7 µM (active) and 13.4 µM (active), respectively.

Turning to `Nn1c(-c2cccc(Br)c2)n[nH]c1=S`, the IC50 in assay [5] is 1.45 µM (active); in [7], > 99 µM (inactive); in assay [8], > 100 µM (inactive); in assay [9], 539 nM (active); in [10], > 99 µM (inactive); in [11] it was 0.55 µM (active). For the same compound, in assay [6], the EC50 was 108 µM (active).

For the compound `Cc1ccc(NC(=O)c2ccccc2OCC(=O)c2ccc(F)cc2)cc1`, on Melanocortin receptor 4, the EC50 was > 89.2 µM (inactive).

For the compound `CCn1ncc(-c2ccnc3cc(C(=O)O)nn23)c1C`, the IC50 was 10.7 µM (inactive) in assay [7]; 93 µM (inactive) and 69.6 µM (inactive) in [9]; 16.4 µM (inactive) and 24.7 µM (inactive) in assay [10]; 3.82 µM (active) in assay [12]; > 99 µM (inactive) in assay [11]; > 100 µM (inactive) in [13].

`C=CCNc1nc(SC)nc2ccsc12`: the IC50 in assay [1] was 0.891 µM (active); in assay [3], 1.73 µM (active).

On to `CCc1ccc(/C(C)=N/NC(=O)CNC(=O)/C=C/c2ccco2)cc1`, for which the IC50 is 0.844 µM (active) in [14], 6.95 µM (active) in assay [15] and 106 µM (active) in assay [16].

On to `COc1ccc(OC)c(NC(=O)CC(C)S(=O)(=O)c2ccc3c(c2)CCN3C(C)=O)c1` (stereo unspecified), for which, in [17], the EC50 is > 100 µM (inactive).

`COC(=O)[C@@H]1COC(c2ccccc2C(F)(F)F)=N1`: the EC50 in assay [17] was > 100 µM (inactive).

The values above are taken from ChEMBL document CHEMBL1201862, “PubChem BioAssay data set” (2004).
